Target: T1, MST1 (Homo sapiens, UniProt Q13043)
T1 sequence (Q13043 1-487): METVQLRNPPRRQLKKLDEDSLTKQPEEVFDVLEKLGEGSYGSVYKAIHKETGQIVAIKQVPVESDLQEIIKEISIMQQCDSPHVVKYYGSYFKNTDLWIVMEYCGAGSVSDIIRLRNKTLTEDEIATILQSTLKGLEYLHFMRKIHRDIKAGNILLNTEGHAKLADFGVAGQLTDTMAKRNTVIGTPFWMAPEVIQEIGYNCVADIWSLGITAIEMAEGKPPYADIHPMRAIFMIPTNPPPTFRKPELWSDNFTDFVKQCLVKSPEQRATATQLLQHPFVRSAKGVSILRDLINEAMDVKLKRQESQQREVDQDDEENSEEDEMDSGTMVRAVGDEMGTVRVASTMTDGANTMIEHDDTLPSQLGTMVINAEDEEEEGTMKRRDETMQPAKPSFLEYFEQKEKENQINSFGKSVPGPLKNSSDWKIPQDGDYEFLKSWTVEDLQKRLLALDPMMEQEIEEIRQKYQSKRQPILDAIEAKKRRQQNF
Details: binder

| dTm MST1 [°C] | Structure (SMILES) |
| --- | --- |
| 5.6 | CNc1ncc2cc(-c3ccc(-c4cccc(C)n4)cc3Cl)c(=O)n(CCCCN)c2n1 [compound 20, MRLW5] |
| 6.0 | CNc1ncc2cc(-c3ccc(-c4cccc(C)n4)cc3Cl)c(=O)n(CCC3CCNCC3)c2n1 [compound 22, 6-(2-Chloro-4-(6-methylpyridin-2-yl)phenyl)-2-(methylamino)-8-(2-(piperidin-4-yl)ethyl)pyrido[2,3-d]pyrimidin-7(8H)-one] |
| 7.9 | CNc1ncc2cc(-c3ccc(-c4cccc(C)n4)cc3Cl)c(=O)n(C[C@H]3CC[C@H](N)CC3)c2n1 [compound 23, 23] |
